The source of these data is PMC8560754, “Bridging the gap between in silico and in vivo by modeling opioid disposition in a kidney proximal tubule microphysiological system” (Scientific Reports, 2021).

Data set [1] relates to human primary proximal tubular epithelial cells (PTEC) tubule in VPT-MPS. Briefly: Transport of morphine and M6G in the vascularized proximal tubule MPS (VPT-MPS). The conditions noted are these: for CLsecretion, each proximal subsegment S1, S2, and S3: clearance value of each proximal subsegment; for CLsecretion, each proximal subsegment S1, S2, and S3 / CLsecretion: scaled up from VPT-MPS; for CLsecretion: unbound intrinsic kidney active secretion clearance at proximal tubule, total; for CLapp, passive diffusion / CLapp, active secretion: one representative donor; for CLapp, passive diffusion / CLapp, active secretion / Concentration in endothelial cell / Efflux rate into lumen: mean ± SD; for CLint,sec: VPT-MPS derived intrinsic secretion clearance; for Concentration in endothelial cell / Efflux rate into lumen: representative donor of Fig 2. Type of data set: in vitro ADME. Here is the method: (§1) The inner chamber of dual-channel MPS devices (Duplo, Fig. 1) (https://www.nortisbio.com/) was dried, filled with 6 mg/mL of rat tail collagen I, and left overnight to allow the collagen I matrix to solidify. The mandrels of the MPS platforms were then removed, leaving two hollow channels through the collagen I matrix. The PTEC channel was coated with a 5 µg/mL mouse collagen IV to facilitate human PTECs adhesion. Cultures of primary kidney epithelial cells were subjected to trypsin digestion to obtain single cell suspensions. The cells were counted and resuspended with PTECs culture media at a concentration of 20 × 10^6 cells/mL and 2–2.5 µL were injected into the collagen IV-coated channel. Cells were allowed to attach for 3 h before starting perfusion at a rate of 1.0 µL/min. A 1.0 µL/min perfusion of DMEM/F12 media containing ITS-A, 50 nM hydrocortisone, penicillin–streptomycin and amphotericin B was then initiated. Following 6 days under these culture conditions, the epithelial tubule was established and perfusion to the channel was stopped for a brief period. The parallel vacant channel was equilibrated with EGM-2 media containing 2% FBS for 2 h at 1.0 µL/min. Then, HUVECs (passages 5–10) were seeded into the equilibrated channel and allowed to attach for 30 min to establish an endothelial vessel. Flow to both channels was resumed at 1.0 µL/min with both channels receiving their respective culture medium. The day after seeding HUVEC, VPT-MPS were used for transport experiments. Prior to the beginning of experiments, a visual inspection under light microscope was performed to confirm complete (100%) coverage of both HUVEC vessel and PTEC tubule, respectively.
(§2) The flow rate of flow through both channels was set at 1 µL/min. Effluents from the vessel and the tubule were collected every 2 h, and drug concentrations in the samples were determined LC/MS/MS. Transport experiments were conducted across 3 different donors. Effluent measurements were extended out to 24 h in order to reach steady-state levels in solute output.

Data set [2] in a line: Morphine-M6G parent-metabolite full body PBPK model. The conditions noted are these: hepatic clearance; systemic clearance minus renal clearance. On the set-up: species or system human.
The conditions of data set [3]: blood-to-plasma ratio; cited from earlier work.
For data set [4] the following is noted: fraction of morphine metabolism to M6G; cited from earlier work.
A short description of data set [5]: Transport of morphine and M6G in the vascularized proximal tubule MPS (VPT-MPS). It counts as in vitro ADME, human. The conditions noted are these: human, with probenecid (1 mM) and tetraethylammonium (1 mM), read-out: Permeability. Here is the method:
as §1, §2

Data set [6] is described as follows: Bidirectional transport across PTECs monolayers in conventional 2D Transwell. Type of data set: in vitro ADME, human. As to conditions: human; for Papp at 1.5 h, 1 µM: PTECs permeability study data used for CLr prediction; for Papp A→B at 1.5 h, 1 µM / Papp B→A at 1.5 h, 1 µM: Inhibitor (-), 1.5 hour incubation; for Papp A→B at 1.5 h, 1 µM: read-out: Papp Apical to Basal; for Papp B→A at 1.5 h, 1 µM: read-out: Papp Basal to Apical. As for the experimental part:
(§3) PTECs were seeded on polyester membrane HTS 24-well Transwell^TM inserts at 0.5-1 ×10^5 cells/well and cultured for 7-10 days until confluency. Transepithelial electrical resistance
(§4) (TEER) across PTECs monolayers was monitored by an EVOM meter from World Precision Instruments (Berlin, Germany). TEER values were normalized to culture surface areas of Transwell^TM inserts. Wells with TEER reading from 25-150 ohm∙cm^2 were used for experiments.
(§5) Samples were collected from basal (for apical to basal transport) or apical (for basal to apical transport) insert and analyzed by LC/MS/MS. Concentrations were used to determine apparent permeability (Papp) by using the following equation: […]

The subject of the next data set is PTECs monolayers. Described as above. It counts as in vitro ADME, human. As to conditions: for CLint, secretion: considered as zero since no active secretion was observed in 2D Transwell; for Papp A→B / Papp B→A: Inhibitor (-), 1.5 hour incubation; for Papp A→B: read-out: Papp Apical to Basal; for Papp B→A: read-out: Papp Basal to Apical. As for the experimental part:
as §3, §4, §5

Data set [7] is described as follows: Bidirectional transport across MDCK monolayers in conventional 2D Transwell. The conditions noted are these: dog, Inhibitor (-), 1.5 hour incubation. It counts as in vitro ADME.
From the text: as §5

The conditions of data set [8]: human, cited from earlier work.
The conditions of data set [9]: ref www.drugbank.ca; cited from earlier work.

Each structure is given as a SMILES string. Where two headings read alike, the source gives them in different places. Marks after values point to notes of the source that are not given here.

As for `CN1CC[C@]23c4c5ccc(O)c4O[C@H]2[C@@H](O)C=C[C@H]3[C@H]1C5` [Morphine, reference compound], in data set [1], the “CLsecretion, each proximal subsegment S1, S2, and S3” value is on record as 13.1 L/h; the CLsecretion was found to be 39.3 L/h. In addition, the “CLapp, passive diffusion” value in data set [1] (with inhibitor) is on record as 2.09±1.58 μL/hr/MPS. The “CLapp, active secretion” value in [1] (without inhibitor) is given as 6.98±3.94 μL/hr/MPS. In data set [2], the CLh is 75.3^i L/h. Further, the B/P in [3] is on record as 1.08^e. Also, the “fm,M6G” value in data set [4] is 0.1^k.
On to `CN1CC[C@]23c4c5ccc(O)c4O[C@H]2[C@@H](O[C@@H]2O[C@H](C(=O)O)[C@@H](O)[C@H](O)[C@H]2O)C=C[C@H]3[C@H]1C5` [M6G, morphine-6-glucuronide], for which the Papp at 24 h, 1 µM came out at 25.9 ± 28.5 ×10⁻⁶ cm/s in [5] (Donor1, VPT-MPS); 9.74 ± 11.1 ×10⁻⁶ cm/s in data set [5] (Donor2, VPT-MPS); 41.8 ×10⁻⁶ cm/s in data set [5] (Donor3, VPT-MPS); 23.8 ×10⁻⁶ cm/s in data set [5] (PBPK model parameter, experimentally determined using VPT-MPS). Moreover, the “decrease in intrinsic clearance by transporter inhibitors” value in data set [1] (1 mM probenecid and 1 mM tetraethylammonium, average of three donors) is given as 63.6%. For the same molecule, the “CLint,sec” value is listed as 15.6 ± 10.5 µL/h/MPS in [1] (Donor1), 1.29 ± 1.09 µL/h/MPS in data set [1] (Donor2) and 22.9 µL/h/MPS in [1] (Donor3). The “CLsecretion, each proximal subsegment S1, S2, and S3” value in data set [1] was determined as 14.5 L/h. In data set [1] (three donors), the “CLint, active secretion, range between PTECs donors” value is on record as 1.29–22.9 µL/h/VPT-MPS. The molecule further displayed a CLsecretion in [1] of 43.5 L/h. Also, the “CLapp, passive diffusion” value in [1] (with inhibitor) worked out at 1.92±2.02 μL/hr/MPS. Further, the “Concentration in endothelial cell” value in data set [1] (with inhibitor) came to 639 ± 34 nM; in data set [1] (without inhibitor), 640 ± 58 nM. For the same molecule, the “Efflux rate into lumen” value is on record as 0.0191 ± 0.0192 pmol/min/MPS in data set [1] (with inhibitor) and 0.110 ± 0.043 pmol/min/MPS in [1] (without inhibitor). The “CLapp, active secretion” value in data set [1] (without inhibitor) is listed as 7.90±3.86 μL/hr/MPS. Also, the Papp at 1.5 h, 1 µM in data set [6] (Donor3) is 40.1 ×10⁻⁶ cm/s; in [6] (Donor5), 28.6 ×10⁻⁶ cm/s; in data set [6] (Donor6) it was 40.1 ×10⁻⁶ cm/s. For the same molecule, the Papp A→B at 1.5 h, 1 µM turned out to be 58 ×10⁻⁶ cm/s in data set [6] (Donor2); 40.1 ± 7.5 ×10⁻⁶ cm/s in [6] (Donor3); 22.5 ×10⁻⁶ cm/s in data set [6] (Donor4); 28.6 ± 1.6 ×10⁻⁶ cm/s in [6] (Donor5); 55.6 ×10⁻⁶ cm/s in data set [6] (Donor6); 3.86 ×10⁻⁶ cm/s in [7] (read-out: Papp Apical to Basal). The Papp B→A at 1.5 h, 1 µM in data set [6] (Donor2) stood at 54.6 ×10⁻⁶ cm/s; in [6] (Donor3), 24.9 ± 14.2 ×10⁻⁶ cm/s; in data set [6] (Donor4) it was 12.2 ×10⁻⁶ cm/s; in [6] (Donor5), 28.6 ± 2.1 ×10⁻⁶ cm/s; in data set [6] (Donor6), 42.2 ×10⁻⁶ cm/s; in [7] (read-out: Papp Basal to Apical), 1.53 ± 0.17 ×10⁻⁶ cm/s. Moreover, the “CLint, secretion” value with PTECs monolayers (Donor2), in the data set on PTECs monolayers (Donor3), in the data set on PTECs monolayers (Donor5) and in the data set on PTECs monolayers (Donor6) was 0 µL/h throughout. Also, the “CLr,observed” value in data set [8] was 9.20–14.3[20],[21] L/h; in data set [8] (ref 5,6 (supplement)), 9.20-14.3 ^5,6 L/hr. Further, the “pKa (base)” value in data set [9] is on record as 9.12^b. Also, the B/P in data set [3] was 0.55^e.
`Nc1ccc(C(=O)NCC(=O)O)cc1` [[^3H] PAH, para-aminohippuric acid, reference compound]: the “active transport in 2D Transwell” value in the data set on PTECs monolayers (2D culture, probe substrate of OAT1 and OAT3) is given as “negligible active transport”. In addition, the results for the Papp A→B with PTECs monolayers (Donor2), in the data set with PTECs monolayers (Donor3) and in the data set with PTECs monolayers (Donor6) were 72.4 ×10⁻⁶ cm/s, 31.7 ×10⁻⁶ cm/s and 71.7 ×10⁻⁶ cm/s, respectively. The Papp B→A worked out at 69.6 ×10⁻⁶ cm/s in the data set on PTECs monolayers (Donor2), 23 ×10⁻⁶ cm/s with PTECs monolayers (Donor3) and 67.3 ×10⁻⁶ cm/s in the data set with PTECs monolayers (Donor6).
